Test results from US11752120B2, “Use of succinic acid in increasing sensitivity of bacteria to antibiotics” (SUN YAT-SEN UNIVERSITY, priority 2018, dated 2023).

Experiments:
[1] = tested on: clinical Escherichia coli YT16 and YT28; test: Viable bacteria count / survival rate after antibiotic with or without succinic acid in M9 medium; format: cell-based
Protocol: A single colony of clinical bacteria was picked from a solid LB plate and was inoculated in 5 mL LB liquid medium for culture at 37° C. and 200 rpm for 16 hours, and then was inoculated in 100 mL LB liquid medium at a ratio of 1:100 (v/v) and was cultured at 37° C. until OD600 value was 1.0. 20 mL of bacterial solution was collected and centrifuged at 8000 rpm for 5 minutes, the supernatant was cleared and bacterial cells were washed with an equal volume of 0.85% normal saline, and finally the bacterial cells were suspended with 1×M9 basic medium (containing 10 mM acetate), the OD value of the bacterial solution was adjusted to 0.5, and then 5 mL of the bacterial solution was aliquoted in a test tube for the following experimental studies.
The survival rates of the clinical bacteria in medium with adding succinic acid and without adding succinic acid at the same antibiotic concentration were compared.
The formula is the number of viable bacteria when different concentrations of succinic acid were added/the number of viable bacteria without adding succinic acid×100%.
In order to study whether clinical Escherichia coli has effect on penicillin antibiotics after adding succinic acid, two clinical Escherichia coli samples of YT16 and YT28 were prepared according to step 2 in Embodiment 1, 20 mM succinic acid and 3 kinds of penicillin were added respectively, […], the number of viable bacteria was counted, and the survival rate was calculated. […]

E. coli K12 = test: Minimum inhibitory concentration (MIC), NCCLS method, control strain; format: cell-based, Escherichia coli; details: no unit in table, MIC in μg/mL
Description: (§1) Escherichia coli (E. coli) are one of the most common bacteria in the clinic. 30 strains of E. coli obtained from the clinic were named YT1-30. The minimum inhibitory concentrations (MIC) of 8 antibiotics against these 30 clinically obtained E. coli was detected according to the NCCLS method, and E. coli K12 was used as a control.

[2] = tested on: clinical Escherichia coli biofilm; test: In vitro bactericidal assay of biofilm; format: cell-based; details: catheter biofilm, 6 hours; succinic acid 580 mg/kg; ampicillin 2000 mg/kg for YT16, 500 mg/kg for YT28
Protocol: […] of clinical Escherichia coli (YT3, YT11, YT12, YT16, YT17, YT21, YT22, YT23, YT28, YT33) were picked, monocloned into LB medium, and cultured overnight, then were transferred into 2 mL fresh LB medium at 1:200, and added with a 6 mm PE-50 biological catheter that was sterilized by UV, and cultured in a 37° C. incubator for culture for 24 hours. The bacterial solution was replaced with 1 mL of LB medium daily, and the catheter was continuously cultured for 3 days. The prepared biofilm was washed 5 times with 1 mL of sterile normal saline, and then placed in a 1.5 mL EP tube.
The assay was divided into 4 groups: normal saline control group, succinic acid group, ampicillin group, ampicillin+succinic acid group, and the catheters were treated in a shaker at 37° C. and 200 rpm. A dosage of succinic acid was 580 mg/kg, and a dosage of ampicillin was 2000 mg/kg for YT16, and 500 mg/kg for YT28. After 6 hours, ultrasonic cleaning was conducted for 15 minutes, the biofilm on the catheter was eluted and thoroughly mixed, and after gradient dilution, spot plate counting was performed. The formula for calculating the bacterial survival rate is: number of viable bacteria in each group/number of viable bacteria in the control group×100%.

[3] = tested on: clinical Escherichia coli YT1-30; test: Minimum inhibitory concentration (MIC), NCCLS method, 30 clinical strains; format: cell-based; parameters: Minimum inhibitory concentration (MIC): unit not given here
Description: as §1

With `CC1(C)S[C@@H]2[C@H](NC(=O)[C@H](N)c3ccccc3)C(=O)N2[C@H]1C(=O)O` [Ampicillin] the survival rate ([1]; YT16, 2.5 mg/mL ampicillin without adding succinic acid, 4 hours) was 61.04%, the survival rate ([1]; YT16, 5 mg/mL ampicillin without adding succinic acid, 4 hours) was 34.53% and the survival rate ([1]; YT16, 10 mg/mL ampicillin without adding succinic acid, 4 hours (FIG. 1)) was 25.99%. It also gave a survival rate ([1]; YT16, 10 mg/mL ampicillin without adding succinic acid, 4 hours (FIG. 3)) of 73.8%, a survival rate ([1]; YT16, 20 mg/mL ampicillin without adding succinic acid, 4 hours) of 12.47% and a survival rate ([1]; YT16, only 10 mg/mL ampicillin added, 1 hour (FIG. 2)) of 93.89%. For the same molecule, the survival rate ([1]; YT16, only 10 mg/mL ampicillin added, 4 hours (FIG. 2)) was 47.34%, the survival rate ([1]; YT16, only 10 mg/mL ampicillin added, 7 hours (FIG. 2)) was 18.45% and the survival rate ([1]; YT28, 2.5 mg/mL ampicillin without adding succinic acid, 4 hours) was 68.38%. For the same molecule, the survival rate ([1]; YT28, 5 mg/mL ampicillin without adding succinic acid, 4 hours) was 56.25%, the survival rate ([1]; YT28, 10 mg/mL ampicillin without adding succinic acid, 4 hours (FIG. 1)) was 35.87% and the survival rate ([1]; YT28, 10 mg/mL ampicillin without adding succinic acid, 4 hours (FIG. 3)) was 86.21%. The survival rate ([1]; YT28, 20 mg/mL ampicillin without adding succinic acid, 4 hours) was 27.09%, the survival rate ([1]; YT28, only 10 mg/mL ampicillin added, 1 hour (FIG. 2)) was 96.79% and the survival rate ([1]; YT28, only 10 mg/mL ampicillin added, 4 hours (FIG. 2)) was 26.79%. The survival rate ([1]; YT28, only 10 mg/mL ampicillin added, 7 hours (FIG. 2)) was 14.18%, the “Minimum inhibitory concentration (MIC)” value (E. coli K12) was 6.1 and the “clearance of clinical Escherichia coli on the biofilms, used alone” value [2] was “cannot clear”. For the same molecule, the “Minimum inhibitory concentration (MIC)” value ([3]; strain YT1) was 25000, the “Minimum inhibitory concentration (MIC)” value ([3]; strain YT2) was 6250 and the “Minimum inhibitory concentration (MIC)” value ([3]; strain YT3) was 390.625. The “Minimum inhibitory concentration (MIC)” value ([3]; strain YT4) was 6250, the “Minimum inhibitory concentration (MIC)” value ([3]; strain YT5) was 25000 and the “Minimum inhibitory concentration (MIC)” value ([3]; strain YT6) was 1562.5. The “Minimum inhibitory concentration (MIC)” value ([3]; strain YT7) was 1562.5, the “Minimum inhibitory concentration (MIC)” value ([3]; strain YT8) was 1562.5 and the “Minimum inhibitory concentration (MIC)” value ([3]; strain YT9) was 1562.5. The “Minimum inhibitory concentration (MIC)” value ([3]; strain YT10) was 6250, the “Minimum inhibitory concentration (MIC)” value ([3]; strain YT11) was 1562.5 and the “Minimum inhibitory concentration (MIC)” value ([3]; strain YT12) was 6250. The “Minimum inhibitory concentration (MIC)” value ([3]; strain YT13) was 6250, the “Minimum inhibitory concentration (MIC)” value ([3]; strain YT14) was 6250 and the “Minimum inhibitory concentration (MIC)” value ([3]; strain YT15) was 6250. For the same molecule, the “Minimum inhibitory concentration (MIC)” value ([3]; strain YT16) was 6250, the “Minimum inhibitory concentration (MIC)” value ([3]; strain YT17) was 6250 and the “Minimum inhibitory concentration (MIC)” value ([3]; strain YT18) was 6250. The “Minimum inhibitory concentration (MIC)” value ([3]; strain YT19) was 1562.5, the “Minimum inhibitory concentration (MIC)” value ([3]; strain YT20) was 1562.5 and the “Minimum inhibitory concentration (MIC)” value ([3]; strain YT21) was 1562.5. The “Minimum inhibitory concentration (MIC)” value ([3]; strain YT22) was 6250, the “Minimum inhibitory concentration (MIC)” value ([3]; strain YT23) was 1562.5 and the “Minimum inhibitory concentration (MIC)” value ([3]; strain YT24) was 6250. For the same molecule, the “Minimum inhibitory concentration (MIC)” value ([3]; strain YT25) was 6250, the “Minimum inhibitory concentration (MIC)” value ([3]; strain YT26) was 6250 and the “Minimum inhibitory concentration (MIC)” value ([3]; strain YT27) was 6250. For the same molecule, the “Minimum inhibitory concentration (MIC)” value ([3]; strain YT28) was 1562.5, the “Minimum inhibitory concentration (MIC)” value ([3]; strain YT29) was 6250 and the “Minimum inhibitory concentration (MIC)” value ([3]; strain YT30) was 25000.

In the case of Gentamicin, the “Minimum inhibitory concentration (MIC)” value (E. coli K12) is reported as 0.61, the “Minimum inhibitory concentration (MIC)” value ([3]; strain YT1) is reported as 2.441 and the “Minimum inhibitory concentration (MIC)” value ([3]; strain YT2) is reported as 156.25. The “Minimum inhibitory concentration (MIC)” value ([3]; strain YT3) was 156.25, the “Minimum inhibitory concentration (MIC)” value ([3]; strain YT4) was 9.765 and the “Minimum inhibitory concentration (MIC)” value ([3]; strain YT5) was 625. The “Minimum inhibitory concentration (MIC)” value ([3]; strain YT6) was 156.25, the “Minimum inhibitory concentration (MIC)” value ([3]; strain YT7) was 625 and the “Minimum inhibitory concentration (MIC)” value ([3]; strain YT8) was 625. The “Minimum inhibitory concentration (MIC)” value ([3]; strain YT9) was 156.25, the “Minimum inhibitory concentration (MIC)” value ([3]; strain YT10) was 625 and the “Minimum inhibitory concentration (MIC)” value ([3]; strain YT11) was 2500. The “Minimum inhibitory concentration (MIC)” value ([3]; strain YT12) was 2500, the “Minimum inhibitory concentration (MIC)” value ([3]; strain YT13) was 2500 and the “Minimum inhibitory concentration (MIC)” value ([3]; strain YT14) was 2500. For the same molecule, the “Minimum inhibitory concentration (MIC)” value ([3]; strain YT15) was 2500, the “Minimum inhibitory concentration (MIC)” value ([3]; strain YT16) was 2500 and the “Minimum inhibitory concentration (MIC)” value ([3]; strain YT17) was 2500. The “Minimum inhibitory concentration (MIC)” value ([3]; strain YT18) was 2.441, the “Minimum inhibitory concentration (MIC)” value ([3]; strain YT19) was 625 and the “Minimum inhibitory concentration (MIC)” value ([3]; strain YT20) was 156.25. For the same molecule, the “Minimum inhibitory concentration (MIC)” value ([3]; strain YT21) was 2500, the “Minimum inhibitory concentration (MIC)” value ([3]; strain YT22) was 2500 and the “Minimum inhibitory concentration (MIC)” value ([3]; strain YT23) was 156.25. For the same molecule, the “Minimum inhibitory concentration (MIC)” value ([3]; strain YT24) was 625, the “Minimum inhibitory concentration (MIC)” value ([3]; strain YT25) was 2500 and the “Minimum inhibitory concentration (MIC)” value ([3]; strain YT26) was 2500. The “Minimum inhibitory concentration (MIC)” value ([3]; strain YT27) was 625, the “Minimum inhibitory concentration (MIC)” value ([3]; strain YT28) was 2500 and the “Minimum inhibitory concentration (MIC)” value ([3]; strain YT29) was 625. For the same molecule, the “Minimum inhibitory concentration (MIC)” value ([3]; strain YT30) was 39.0625.
